This note sets out measurements from patent US4960883A, “Piperazines and homopiperazines” (Kowa Company, Ltd., priority 1988, dated 1990).

This assay deals with Rabbit PRP, ADP-induced platelet aggregation. Kind of assay: Inhibitory effect on ADP-induced platelet aggregation. The settings on record: ADP (2 μm); for Platelet aggregation inhibitory concentration: concentration at which the inhibition rate (%) in parentheses was found. The assay is classed as cell-based. As to the method: (B) Inhibitory effect on ADP-induced platelet aggregation
Rabbit PRP (250 μl) was preincubated with drug samples ([…]) of aqueous solution or 1 µl of DMSO solution) at 37° C. for 1 minute, and ADP (2 μm)-induced platelet aggregation was measured by aggregometer (NKK HEMA TRACERl Model PAT-4M). Inhibitory effects of the drugs were estimated from the standard curve of maximal aggregation.

For the molecule `CC(C)COCC(CN1CCN(S(=O)(=O)c2cccc3c(Cl)cccc23)CC1)N(C)Cc1ccccc1` (stereo not drawn) [Example 9], the “Platelet aggregation inhibitory concentration” value is reported as 10^-5 mole/liter. The “Platelet aggregation inhibition rate (%) in the parentheses” value (“Platelet aggregation inhibition rate (%)” for short) (at 10^-5 mole/liter) stood at 8%.

With `CC(C)COCC(CN1CCN(S(=O)(=O)c2ccccc2)CC1)N(C)Cc1ccccc1` (stereo not drawn) [Example 11], the “Platelet aggregation inhibitory concentration” value is listed as 10^-4 mole/liter. Moreover, the “Platelet aggregation inhibition rate (%)” value (at 10^-4 mole/liter) is 33%.

With `COc1ccc(S(=O)(=O)N2CCN(CC(COCC(C)C)N(C)Cc3ccccc3)CC2)cc1OC` (stereo not drawn) [Example 1, 1-(3,4-dimethoxybenzenesulfonyl)-4-(3-isobutoxy-2-methylbenzylaminopropyl)-piperazine], the “Platelet aggregation inhibitory concentration” value was 10^-5 mole/liter. For the same molecule, the “Platelet aggregation inhibition rate (%)” value (at 10^-5 mole/liter) was determined as 12%.

For `CC(C)COCC(CN1CCCN(S(=O)(=O)c2ccccc2)CC1)N(C)Cc1ccccc1` (stereo not drawn) [Example 2, 1-benzenesulfonyl-4-(3-isobutoxy-2-methylbenzylaminopropyl)homopiperazine], the “Platelet aggregation inhibitory concentration” value is on record as 10^-4 mole/liter. Besides, the “Platelet aggregation inhibition rate (%)” value (at 10^-4 mole/liter) is on record as 60%.

For the molecule `CC(C)COCC(CN1CCN(S(C)(=O)=O)CC1)N(C)Cc1ccccc1` (stereo not drawn) [Example 10], the “Platelet aggregation inhibitory concentration” value is given as 10^-4 mole/liter. For the same molecule, the “Platelet aggregation inhibition rate (%)” value (at 10^-4 mole/liter) was 35%.

Regarding `CC(C)COCC(CN1CCN(C(=O)CCO[N+](=O)[O-])CC1)N(C)Cc1ccccc1` (stereo not drawn) [Example 7], the “Platelet aggregation inhibitory concentration” value is 10^-4 mole/liter. Also, the “Platelet aggregation inhibition rate (%)” value (at 10^-4 mole/liter) turned out to be 33%.
